Patent publication US20230404075A1, “RHIZOBIA SYMBIOSIS PROMOTING AGENT AND SYMBIOSIS PROMOTION METHOD” (TOYOTA JIDOSHA KABUSHIKI KAISHA, priority 2020, published 2023)

Legend:
[1] = system: Miyakogusa (Lotus japonicus); assay: Root nodule formation (number of infection threads, number of root nodules) in Miyakogusa inoculated with DsRED gene-bearing rhizobium; format: in vivo; conditions: final concentration 10 μM or 100 μM, vs Non-addition (control)
Experimental: First, caffeic acid (Caffeic Acid, CAS RN: 331-39-5 C0002, Tokyo Chemical Industry Co., Ltd.) was dissolved in ethanol, thereby preparing a 100 mM stock solution. Next, about 300 mL of vermiculite was added to pots, entirely moistened with water, and then sterilized in an autoclave. Miyakogusa (Lotus japonicus) three to four days after sowing was transplanted into the pots, and 50 mL of B&D liquid medium (Broughton and Dilworth, 1971) containing a DsRED gene-bearing rhizobium (OD600=[…]; 1 mL) and caffeic acid (final concentration: 10 μM or 100 μM) was added.
Plants inoculated with the rhizobium were grown in an incubator (26° C.; 16 hr light/8 hr dark). The plants were dug up from the soil after one week and two weeks, and the number of infection threads and the number of root nodules were counted under a fluorescent stereomicroscope.
In FIG. 1, error bars in the graphs represent standard errors, and asterisks (*) indicate data with a significant difference (Dunnett method: p<0.05; n=10) compared to Non-addition (control).

[2] = system: soybean (Glycine max cv. Enrei); assay: Biomass production and root nodule formation in soybean inoculated with rhizobia (Bradyrhizobium japonicum); format: in vivo; conditions: 100 μM, vs Non-addition (control), Dunnett p<0.01, n=8
Experimental: In this Example, first, seeds of the soybean (Glycine max cv. Enrei) were placed on wet Kimwipes® for three to four days to germinate and then transferred to pots containing vermiculite (about 1.1 L) and grown for about three days in a plant incubator (28° C.; 16 hr light/8 hr dark). Next, a non-addition plot was prepared by adding rhizobia (Bradyrhizobium japonicum; OD600=0.1; 1 mL) to 50 ml of B&D medium. An addition plot was prepared by adding ferulic acid (final concentration: 100 μM) to 50 mL of B&D medium containing rhizobia. They were inoculated into the individual soybean plants. Soybean plants grown in the incubator for one week and two weeks were dug up from the pots, and their growth (aerial part length, underground part length, number of leaves) and number of root nodules were measured.
In FIGS. 4 and 5, error bars in the graphs represent standard errors, and asterisks (**) indicate data with a significant difference (Dunnett method: p<0.01; n=8) compared to Non-addition (control).

[3] = after two weeks, Dunnett p<0.05, n=10

Compound: COc1cc(/C=C/C(=O)O)cc(OC)c1O [sinapinic acid, 3,5-Dimethoxy-4-hydroxycinnamic Acid]
- number of root nodules ([1]; after one week): significant increase
- number of infection threads ([1]; after two weeks): significant increase

Compound: O=C(O)/C=C/c1ccc(O)c(O)c1 [caffeic acid]
- number of infection threads ([1]; after one week, Dunnett p<0.05, n=10): significant increase
- number of root nodules [1, 3]: tendency for the number of root nodules to increase

Compound: COc1cc(/C=C/C(=O)O)ccc1O [ferulic acid, 3-methoxy-4-hydroxycinnamic acid]
- number of root nodules ([2]; soybean grown for one week): significantly increased
- aerial part length ([2]; soybean grown for two weeks): significantly increased
- number of root nodules ([2]; soybean grown for two weeks): significantly increased
- number of infection threads ([1]; after two weeks): significant increases
- number of root nodules [1, 3]: significant increases
